Measurements taken from patent US5969132.
Where two headings read alike, the source gives them in different places.

Details: amide bond, NaHCO3, CH2Cl2, 72.0 h, 2 steps

Compound | ring closure, yield of all isomers (from CC(C)[C@H](COCc1ccccc1)NC(=O)C(F)(F)C(O)[C@H](Cc1ccc(OCC(=O)Oc2c(F)c(F)c(F)c(F)c2F)cc1)NC(=O)[C@@H](NC(=O)CNC(=O)OC(C)(C)C)C(C)C, 1.69 mM) [%] | ring closure, yield of all isomers (from CC(C)[C@H](NC(=O)CNC(=O)OC(C)(C)C)C(=O)N[C@@H](Cc1ccc(OCC(=O)Oc2c(F)c(F)c(F)c(F)c2F)cc1)C(O)C(F)(F)C(=O)NCc1ccccc1) [%]
CC(C)[C@H](COCc1ccccc1)NC(=O)C(F)(F)[C@H](O)[C@@H]1Cc2ccc(cc2)OCC(=O)NCC(=O)N[C@@H](C(C)C)C(=O)N1 | 8 | 
CC(C)[C@@H]1NC(=O)CNC(=O)COc2ccc(cc2)C[C@@H](C(O)C(F)(F)C(=O)NCc2ccccc2)NC1=O (some centres unmarked) |  | 78.7
